Consider twelve compounds from patent US6107284A, “Water-soluble derivatives of epipodophyllotoxin, process for their preparation, their use as medicinal products and their intended use in anti-cancer treatments” (Pierre Fabre Medicament, priority 1994, dated 2000).

The target of data set [1] is topoisomerase II (Cricetulus griseus, UniProt P41515). Nature of the data set: Test of inhibition of the activity of topoisomerase II. It is filed as biochemical. The conditions noted are these: for IC50: in vitro, read-out: Test of inhibition of the activity of topoisomerase II (ED50 M). The text has this:
Measurement of the inhibition of the activity of topoisomerase II is made according to the procedure described in the literature: "Nuclear topoisomerase II levels correlate with the sensitivity of mammalian cells to intercalating Agents and Epipodophyllotoxins", I. D. Hickson et al., J. Biol. Chem. (1988), 263, 17724.

For data set [2] the following is noted: background, known drugs; cited from earlier work.
Data set [3] can be described thus: Measurement of the water-solubility of the salts. Conditions: read-out: % solubility (weight/volume) expressed in g per 100 ml of water. It is filed as physicochemical. The text has this: The amorphous or crystalline salts are obtained by simple freeze-drying. [drawing 4] Measurement of the Water-Solubility
The solubility in water of the salts of the phosphate or carboxylate derivatives by addition of physiologically acceptable organic amines such as, for example, N-methylglucamine, triethanolamine or lysine, or the salts with inorganic cations such as sodium, obtained in lyophilized form or by extemporaneous addition of a base to the free acid compound, gave the following results by way of example.

Each structure is given as a SMILES string. Structures can show the parent of a compound that is named as a salt. Where two headings read alike, the source gives them in different places.

topoisomerase II, sequence (P41515 whole entry): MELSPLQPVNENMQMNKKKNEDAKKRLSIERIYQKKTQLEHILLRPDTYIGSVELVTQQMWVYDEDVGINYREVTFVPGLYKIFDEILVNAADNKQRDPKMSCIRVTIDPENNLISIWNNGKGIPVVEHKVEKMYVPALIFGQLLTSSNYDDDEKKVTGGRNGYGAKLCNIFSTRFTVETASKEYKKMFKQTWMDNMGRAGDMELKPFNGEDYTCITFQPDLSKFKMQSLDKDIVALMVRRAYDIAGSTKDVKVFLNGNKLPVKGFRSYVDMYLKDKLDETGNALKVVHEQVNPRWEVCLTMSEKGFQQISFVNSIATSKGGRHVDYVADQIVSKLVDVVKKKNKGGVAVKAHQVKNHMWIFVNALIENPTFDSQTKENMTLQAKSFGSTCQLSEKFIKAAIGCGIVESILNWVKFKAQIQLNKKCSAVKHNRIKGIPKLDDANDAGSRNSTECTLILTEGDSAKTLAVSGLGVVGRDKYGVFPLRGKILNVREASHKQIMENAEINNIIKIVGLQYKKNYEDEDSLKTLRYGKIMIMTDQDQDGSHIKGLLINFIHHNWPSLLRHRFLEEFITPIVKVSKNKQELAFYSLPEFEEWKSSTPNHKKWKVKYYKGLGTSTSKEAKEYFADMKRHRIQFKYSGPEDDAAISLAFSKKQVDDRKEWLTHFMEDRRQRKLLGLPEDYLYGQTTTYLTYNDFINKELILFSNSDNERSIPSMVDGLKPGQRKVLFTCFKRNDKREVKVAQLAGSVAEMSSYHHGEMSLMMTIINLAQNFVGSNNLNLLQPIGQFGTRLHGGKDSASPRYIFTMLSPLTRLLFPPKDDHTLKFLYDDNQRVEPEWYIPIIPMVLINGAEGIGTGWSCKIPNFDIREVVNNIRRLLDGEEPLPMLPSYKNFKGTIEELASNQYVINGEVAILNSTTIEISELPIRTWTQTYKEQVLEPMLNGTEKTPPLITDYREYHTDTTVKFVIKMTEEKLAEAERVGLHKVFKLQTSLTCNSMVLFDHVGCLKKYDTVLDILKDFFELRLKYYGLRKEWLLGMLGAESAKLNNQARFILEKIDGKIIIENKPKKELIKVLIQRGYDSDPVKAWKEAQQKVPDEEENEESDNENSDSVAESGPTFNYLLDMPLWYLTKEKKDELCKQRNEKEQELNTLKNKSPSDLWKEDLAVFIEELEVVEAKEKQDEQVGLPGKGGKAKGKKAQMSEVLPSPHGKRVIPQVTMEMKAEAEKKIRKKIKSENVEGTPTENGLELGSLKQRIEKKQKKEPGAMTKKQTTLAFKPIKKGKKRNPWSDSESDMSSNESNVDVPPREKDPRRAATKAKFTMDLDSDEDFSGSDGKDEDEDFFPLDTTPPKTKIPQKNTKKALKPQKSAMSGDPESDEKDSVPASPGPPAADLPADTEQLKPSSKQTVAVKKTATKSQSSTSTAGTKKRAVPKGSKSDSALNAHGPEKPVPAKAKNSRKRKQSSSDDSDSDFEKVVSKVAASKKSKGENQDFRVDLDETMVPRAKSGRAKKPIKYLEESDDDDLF

Regarding `COc1cc([C@@H]2c3cc4c(cc3[C@@H](O[C@@H]3O[C@@H]5CO[C@@H](C)O[C@H]5[C@H](O)[C@H]3O)[C@H]3COC(=O)[C@H]23)OCO4)cc(OC)c1OP(=O)(O)O` [Etopofos, reference compound], the IC50 in data set [1] was greater than 100 µM. Besides, the “in vitro activity compared with etoposide (in words)” value in data set [1] (relative to etoposide) was “loss of in vitro activity”.

With `COc1cc([C@@H]2c3cc4c(cc3[C@@H](O[C@@H]3O[C@@H]5CO[C@@H](C)O[C@H]5[C@H](O)[C@H]3O)[C@H]3COC(=O)[C@H]23)OCO4)cc(OC)c1O` [Etoposide, reference compound], in data set [1], the IC50 came out at 56 µM. Besides, in data set [2], the “water-solubility (in words)” value was “lack of water-solubility”.

As for `COc1cc([C@@H]2c3cc4c(cc3[C@@H](O[C@@H]3O[C@@H]5CO[C@@H](C)O[C@H]5[C@H](OC(=O)COc5ccccc5)[C@H]3OC(=O)COc3ccccc3)[C@H]3COC(=O)[C@H]23)OCO4)cc(OC)c1OP(=O)(O)O` [Example 1, 4'-demethyl-4-O-(2,3-bisphenoxyacetyl-4,6-ethylidene-β-D-glucosyl)epipodophyllotoxin-4'-deoxy-4'-phosphate], the solubility in data set [3] (N-methylglucamine salt) came out at 5 mg/mL. Further, the IC50 in data set [1] amounted to 5.6 µM.

Consider `COc1cc([C@@H]2c3cc4c(cc3[C@@H](O[C@@H]3O[C@@H]5CO[C@@H](C)O[C@H]5[C@H](OC(=O)COc5ccc(OC(F)(F)F)cc5)[C@H]3OC(=O)COc3ccc(OC(F)(F)F)cc3)[C@H]3COC(=O)[C@H]23)OCO4)cc(OC)c1OP(=O)(O)O` [Example 3, 4'-demethyl-4-O-(2,3-bis-(4-trifluoromethoxyphenoxyacetyl)-4,6-ethylidene-β-D-gluocosyl)epipodophyllotoxin-4'-deoxy-4'-phosphate, bis(N-methylglucamine) Salt], for which, in data set [3] (N-methylglucamine salt), the solubility was determined as 50 mg/mL. Also, in data set [1], the IC50 came to 0.32 µM.

For the compound `COc1cc([C@@H]2c3cc4c(cc3[C@@H](O[C@@H]3O[C@@H]5CO[C@@H](C)O[C@H]5[C@H](OC(=O)COc5ccc(F)cc5)[C@H]3OC(=O)COc3ccc(F)cc3)[C@H]3COC(=O)[C@H]23)OCO4)cc(OC)c1OP(=O)(O)O` [Example 4, 4'-demethyl-4-O-(2,3-bis(4-fluorophenoxyacetyl)-4,6-ethylidene-β-D-glucosyl)epipodophyllotoxin-4'-deoxy-4'-phosphate bis(N-methylglucamine) Salt], in data set [3] (N-methylglucamine salt), the solubility is 100 mg/mL. For the same compound, in data set [1], the IC50 amounted to 1.8 µM.

For `COc1cc([C@@H]2c3cc4c(cc3[C@@H](O[C@@H]3O[C@@H]5CO[C@@H](C)O[C@H]5[C@H](OC(=O)COc5ccc(OP(=O)(O)O)cc5)[C@H]3OC(=O)COc3ccc(OP(=O)(O)O)cc3)[C@H]3COC(=O)[C@H]23)OCO4)cc(OC)c1OC(=O)COc1ccc(OP(=O)(O)O)cc1` [Example 6, 4'-(4-phosphonooxyphenoxyacetyl)-4'-demethyl-4-O-(2,3-bis(4-phosphonooxyphenoxyacetyl)-4,6-ethylidene-β-D-glucosyl)epipodophyllotoxin], the solubility in data set [3] (N-methylglucamine salt) was 100 mg/mL; in data set [3] (Sodium salt) it was 10 mg/mL; in data set [3] (lysine salt), 200 mg/mL; in data set [3] (triethanolamine salt), 200 mg/mL. For the same compound, the IC50 in data set [1] was found to be 0.32 µM.

On to `COc1cc([C@@H]2c3cc4c(cc3[C@@H](O[C@@H]3O[C@@H]5CO[C@@H](C)O[C@H]5[C@H](OC(=O)COc5ccc(OP(=O)(O)O)cc5)[C@H]3OC(=O)COc3ccc(OP(=O)(O)O)cc3)[C@H]3COC(=O)[C@H]23)OCO4)cc(OC)c1OP(=O)(O)O` [Example 7, 4'-demethyl-4-O-(2,3-bis(4-phosphonooxyphenoxyacetyl)-4,6-ethylidene-β-D-glucosyl)epipodophyllotoxin-4'-deoxy-4'-phosphate], for which the solubility in data set [3] (N-methylglucamine salt) was found to be 100 mg/mL. Further, the IC50 in data set [1] is 56 µM.

On to `COc1cc([C@@H]2c3cc4c(cc3[C@@H](O[C@@H]3O[C@@H]5CO[C@@H](C)O[C@H]5[C@H](OC(=O)COc5ccc(O)cc5)[C@H]3OC(=O)COc3ccc(O)cc3)[C@H]3COC(=O)[C@H]23)OCO4)cc(OC)c1OC(=O)N(CC(=O)O)CC(=O)O` [Example 11, 4'-(dicarboxymethylaminocarbonyl)-4'-demethyl-4-O-(2,3-bis(p-hydroxyphenoxyacetyl)-4,6-ethylidene-β-D-glucosyl)epipodophyllotoxin], for which the solubility in data set [3] (N-methylglucamine salt) is 100 mg/mL. Also, the IC50 in data set [1] was 5.6 µM.

Regarding `COc1cc([C@@H]2c3cc4c(cc3[C@@H](O[C@@H]3O[C@@H]5CO[C@@H](C)O[C@H]5[C@H](OC(=O)CS(=O)(=O)c5ccccc5)[C@H]3OC(=O)CS(=O)(=O)c3ccccc3)[C@H]3COC(=O)[C@H]23)OCO4)cc(OC)c1OP(=O)(O)O` [Example 21, 4'-demethyl-4'-deoxy-4'-phosphate-4-O-(2,3-bis(phenylsulfonylacetyl)-4,6-ethylidene-β-D-glucosyl)epipodophyllotoxin], the solubility in data set [3] (N-methylglucamine salt) is 100 mg/mL. Moreover, in data set [1], the IC50 was 5.6 µM.

`COc1cc([C@@H]2c3cc4c(cc3[C@@H](O[C@@H]3O[C@@H]5CO[C@@H](C)O[C@H]5[C@H](OC(=O)COc5ccc(OCC(=O)O)cc5)[C@H]3OC(=O)COc3ccc(OCC(=O)O)cc3)[C@H]3COC(=O)[C@H]23)OCO4)cc(OC)c1OC(=O)COc1ccc(OCC(=O)O)cc1` [Example 26, 4'-demethyl-4'-carboxymethoxyphenoxyacetyl-4-O-(2,3-bis(4-carboxymethoxyphenoxyacetyl)-4,6-ethylidene-β-D-glucosyl)epipodophyllotoxin]: in data set [3] (N-methylglucamine salt), the solubility is 100 mg/mL. Further, the IC50 in data set [1] came to 5.6 µM.

Consider `COc1cc([C@@H]2c3cc4c(cc3[C@@H](O[C@@H]3O[C@@H]5CO[C@@H](C)O[C@H]5[C@H](OC(=O)COc5ccc(Cl)cc5)[C@H]3OC(=O)COc3ccc(Cl)cc3)[C@H]3COC(=O)[C@H]23)OCO4)cc(OC)c1OP(=O)(O)O` [Example 27, 4'-demethyl-4'-deoxy-4'-phosphate-4-O-(2,3-bis(4-chlorophenoxyacetyl)-4,6-ethylidene-β-D-glucosyl)epipodophyllotoxin], for which the solubility in data set [3] (N-methylglucamine salt) turned out to be 5 mg/mL. In addition, the IC50 in data set [1] came to 0.76 µM.

Consider `COc1cc([C@@H]2c3cc4c(cc3[C@@H](O[C@@H]3O[C@@H]5CO[C@@H](c6cccs6)O[C@H]5[C@H](O)[C@H]3O)[C@H]3COC(=O)[C@H]23)OCO4)cc(OC)c1O` [teniposide], for which the “water-solubility (in words)” value in data set [2] is on record as “lack of water-solubility”.
